The test system of one assay is Wistar rats. The assay is described as follows: Induction of suprahyoid muscle twitching in urethane anaesthetised Wistar rats. It counts as in vivo. The note with it: Rattus norvegicus, ip, urethane anaesthetised Wistar rats pretreated with nialamide; read-out: MED, increase of amplitude and/or rate of suprahyoid muscle twitch. The text has this:
(§1) Benzodiazepine inverse agonists properties are indicated by the following tests.
(c) […] of suprahyoid muscle twitching in urethane anaesthetised Wistar rats [James & Gardner--Europ. J. Pharmacol. 113, 223-8 (1985)]. Wistar rats pretreated with nialamide are anaesthetised with urethane and the suprahyoid muscles exposed. These muscles spontaneously twitch and active compounds increase the amplitude and/or rate of twitch.

The next assay concerns the target benzodiazepine receptor. Description: Benzodiazepine receptor binding (FRB), [3H]-flunitrazepam displacement. The note with it: 0.6 nM [3H] flunitrazepam, rat forebrain membrane preparations; read-out: FRB (IC50, inhibition of specific binding of [3H]-flunitrazepam). The method, then:
The compounds of formula I are agents which interact with benzodiazepine receptors in the brain, and are useful as minor tranquillizers and for the treatment of obesity or cognitive impairment. Screening for benzodiazepine receptor binding (FRB) was carried out by the method described in published British Patent No. 2,128,989. The values given in Table II are expressed in terms of IC50 (nM).
The affinity of the compounds for the benzodiazepine receptor was assessed using the radioligand [^3 H]-flunitrazepam by modification of the original radioceptor binding method of SQUIRES et al [Nature, (1977), Vol. 266, p. 732].

A further assay deals with CD1 mice. Description: Potentiation of seizures induced by subcutaneous injection of leptazol to CD1 mice. The note with it: Mus musculus, ip, 0.5 h, i.p., 30 mins pretest, read-out: ED50, potentiation of leptazol-induced tonic seizures. It counts as in vivo. The method, then: as §1
(b) Potentiation of seizures induced by subcutaneous injection of leptazol to CD1 mice.
A dose of leptazol is selected to give 10 to 20% tonic seizures in untreated CD1 mice. Active compounds increase the percentage of tonic seizures and the ED50 is calculated by the method of Lichfield and Wilcoxon (J. Pharmacol Exp. Ther. (1949) 96, 99).

The next assay has as its system DBA2 mice. The assay is described as follows: Potentiation of threshold seizures induced by audiogenic stimulation in DBA2 mice. It counts as in vivo. The note with it: Mus musculus, ip, 0.5 h, i.p., 30 mins pretest, read-out: ED50, potentiation of audiogenic threshold seizures to full tonic seizures. The method, then:
as §1
(a) Potentiation of threshold seizures induced by audiogenic stimulation in DBA2 mice [Jensen et al--Life Sciences 33, 393-9 (1983)], DBA2 mice are subjected to audio stimulation. The threshold seizure characteristics (myoclonus, running) are potentiated by active compounds to full tonic seizures and ED50 is calculated.

One may read the IC50 as the concentration that inhibits the measured activity by half. One may read the ED50 as the dose that gives a 50% effect, or the effect in half of the subjects. Turning to `CCc1c(OC)nc2nc(-c3nc(C)cs3)cn2c1C` [Example 1, 6-Ethyl-7-methoxy-5-methyl-2-(4-methylthiazol-2-yl)-imidazo[1,2-a]pyrimidine], the minimal effective dose in the assay on Wistar rats was found to be 10 mg/kg. The IC50 on benzodiazepine receptor came to 112 nM. In addition, the ED50 in the assay on CD1 mice is 50 mg/kg; with DBA2 mice, 3 mg/kg. As to `CCc1csc(-c2cn3c(C)c(CC)c(OC)nc3n2)n1` [Example 2, 6-Ethyl-2-(4-ethylthiazol-2-yl)-7-methoxy-5-methylimidazo[1,2-a]pyrimidine], the IC50 at benzodiazepine receptor was determined as 220 nM. Still for that read-out and setting: then `CCc1c(OC)nc2nc(-c3nc(C)c(C)s3)cn2c1C` [Example 3, 2-(4,5-Dimethylthiazol-2-yl)-6-ethyl-7-methoxy-5-methylimidazo[1,2-a]pyrimidine], with 2500 nM. Consider `CCOC(=O)c1csc(-c2cn3c(C)c(CC)c(OC)nc3n2)n1` [Example 4, Ethyl 2-(6-ethyl-7-methoxy-5-methylimidazo[1,2-a]pyrimidin-2-yl)-thiazole-4-carboxylate], for which the IC50 at benzodiazepine receptor worked out at 2800 nM.

With `CCc1c(SC)nc2nc(-c3nc(C)cs3)cn2c1C` [Example 5, 6-Ethyl-5-methyl-2-(4-methylthiazol-2-yl)-7-methylthioimidazo[1,2-a]pyrimidine], the IC50 at benzodiazepine receptor worked out at 80 nM.

For the molecule `CCc1c(OC)nc2nc(-c3nc(C(F)(F)F)cs3)cn2c1C` [Example 6, 6-Ethyl-7-methoxy-5-methyl-2-(4-trifluoromethylthiazol-2-yl)-imidazol[1,2-a]pyrimidine], the IC50 on benzodiazepine receptor worked out at 2000 nM. As for `COc1nc2nc(-c3nc(C)cs3)cn2c2c1CCCC2` [Example 7, 5-Methoxy-2-(4-methylthiazol-2-yl)-6,7,8,9-tetrahydroimidazo[1,2-a]quinazoline], the IC50 at benzodiazepine receptor worked out at 22 nM.

As for `C=CCc1c(OC)nc2nc(-c3nc(C)cs3)cn2c1C` [Example 8, 6-Allyl-7-methoxy-5-methyl-2-(4-methylthiazol-2-yl)imidazo[1,2-a]pyrimidine], the IC50 on benzodiazepine receptor was determined as 100 nM. Same read-out and setting: then `CCCc1c(OC)nc2nc(-c3nc(C)cs3)cn2c1C` [Example 9, 7-Methoxy-5-methyl-2-(4-methylthiazol-2-yl)-6-propylimidazo[1,2-a]pyrimidine], with 100 nM. The same measure, in the same setting: the value for `CCc1c(OC)nc2nc(-c3nccs3)cn2c1C` [Example 10, 6-Ethyl-7-methoxy-5-methyl-2-(thiazol-2-yl)imidazo[1,2-a]pyrimidine] was 200 nM.

The values are drawn from patent US4925846A, “2-thiazolyl-imidazo[1,2,-a]pyrimidines” (Roussel Uclaf, priority 1986, dated 1990).
